Columns and labels:
[1] = Levofloxacin stability on formulation at elevated temperature / autoclaving; assay type: physicochemical; details: HPLC, solution equilibrated at 60° C.
Text: Wet-spinning fibers from a solution of levofloxacin and PLGA results in a product that is porous with a rough surface (on the sub-micron length scale). The internal morphology of the fiber is consistent with fiber prepared in previous work via wet-spinning. (See, e.g., Gao, H., et al., Journal of Controlled Release 2007; 118(3):325-332, the disclosure of which is incorporated herein by reference.) The protuberances on the surface of the fiber are likely the result of the drug forming aggregates on the surface, and/or by the drug distorting the polymer matrix at the surface. Fiber B has larger more discrete protuberances relative to fibers A and C. This may be due to fiber B having suspended particles of drug present in the polymer solution before wet spinning. […] Fiber C was manufactured at an elevated temperature to absolutely assure total drug dissolution in the polymer/DMSO solution. […] (See e.g., Fujimoto, K., et al., Jpn J Pharmacol 1995; 69(4):443-445, the disclosure of which is incorporated herein by reference.)

[2] = Isothermal titration calorimetry of octanoic acid with cyclodextrin; assay type: binding; details: 1:1 complex, DPBS
Method: The binding energy between octanoic acid and -cyclodextrin (-CD) was determined by isothermal titration calorimetry. Briefly, solutions used of […]-CD and 0.2 M octanoic acid were made in DPBS. Ten injections of […] each of the octanoic acid solution were made into 1.37 ml of the cyclodextrin in a Microcal ITC unit. A 1:1 complex is formed with an equilibrium constant of 1900.

SMILES: C[C@H]1COc2c(N3CCN(C)CC3)c(F)cc3c(=O)c(C(=O)O)cn1c23 [Levofloxacin, levofloxacin]
- stability after formulation at higher temperatures [1]: no other peaks were observed in the HPLC chromatogram

SMILES: CCCCCCCC(=O)O [octanoic acid]
- equilibrium constant [2]: 1900
